The values that follow are results of earlier work, collected in patent US7756644B2, “System and method for automated selection of T-cell epitopes” (priority 2005, dated 2010).

This data set relates to memory T-cells isolated from HLA-B7-positive EBV-seropositive individuals. Particulars: PNAS 1999.

For the sequence RPPIFIRRL [EBNA 3A.379], the “recognition by memory T-cells / immunogenicity” value is listed as “recognized”.

For the sequence “QPRAPIRPI (EBNA 3C.881 peptide from Epstein-Barr virus)”, the “recognition by memory T-cells / immunogenicity” value is given as “is not”.
